From publication PMC7070694, “Identification of New Peptides from Fermented Milk Showing Antioxidant Properties: Mechanism of Action” (Antioxidants, 2020)
Peptide text beside a SMILES is read from it.

Test system: not listed separately
Test: MTT cell viability (cytotoxicity)
Type: cell-based
Conditions: human, Caco-2 cells (1 × 10^4), synthetic peptides 0.05 mg/mL, no TbOOH, mean ± SD of at least three experiments, read-out: Percentage of Cell Viability, None (c)

SMILES	viability at 24 h, 50 µg/mL
CC[C@H](C)[C@H](NC(=O)[C@@H]1CCCN1C(=O)CNC(=O)[C@@H]1CCCN1C(=O)[C@H](Cc1ccccc1)NC(=O)[C@@H]1CCCN1C(=O)[C@H](Cc1ccc(O)cc1)NC(=O)[C@@H](N)C(C)C)C(=O)N1CCC[C@H]1C(=O)N[C@@H](CC(N)=O)C(=O)O [V-10-N] (H-VYPFPGPIPN-OH)	111 ± 9.93%
CSCC[C@H](NC(=O)[C@H](Cc1c[nH]c2ccccc12)NC(=O)[C@@H](N)CO)C(=O)N[C@@H](Cc1c[nH]cn1)C(=O)N[C@@H](CCC(N)=O)C(=O)N1CCC[C@H]1C(=O)N[C@@H](Cc1c[nH]cn1)C(=O)N[C@@H](CCC(N)=O)C(=O)N1CCC[C@H]1C(=O)N[C@@H](CC(C)C)C(=O)N1CCC[C@H]1C(=O)N1CCC[C@H]1C(=O)N[C@H](C(=O)O)[C@@H](C)O [S-13-T] (H-SWMHQPHQPLPPT-OH)	107 ± 12.4%
CC(C)[C@H](NC(=O)[C@H](CCC(=O)O)NC(=O)[C@@H]1CCCN1C(=O)[C@H](Cc1ccccc1)NC(=O)[C@@H]1CCCN1)C(=O)N[C@@H](Cc1ccccc1)C(=O)NCC(=O)N[C@@H](CCCCN)C(=O)N[C@@H](CCC(=O)O)C(=O)O [P-9-E] (H-PFPEVFGKE-OH)	101 ± 14.5%
CSCC[C@H](NC(=O)[C@H](CCC(=O)O)NC(=O)[C@H](CCCCN)NC(=O)[C@@H](N)Cc1c[nH]cn1)C(=O)N1CCC[C@H]1C(=O)N[C@@H](Cc1ccccc1)C(=O)N1CCC[C@H]1C(=O)N[C@@H](CCCCN)C(=O)N[C@@H](Cc1ccc(O)cc1)C(=O)N1CCC[C@H]1C(=O)N[C@H](C(=O)N[C@@H](CCC(=O)O)C(=O)N1CCC[C@H]1C(=O)N[C@@H](Cc1ccccc1)C(=O)N[C@H](C(=O)N[C@@H](CCC(=O)O)C(=O)N[C@@H](CO)C(=O)N[C@@H](CCC(N)=O)C(=O)O)[C@@H](C)O)C(C)C [H-18-Q] (H-HKEMPFPKYPVEPFTESQ-OH)	91.9 ± 8.99%

Test system: Caco-2 cell monolayer
Test: Transepithelial transport through Caco-2 cell monolayers (Transwell)
Type: in vitro ADME
Conditions: Caco-2 monolayer on Transwell, 21 days, TEER > 1100 Ω × cm^2; 75 µg peptide in 0.75 mL HBSS apical, 37 °C, 120 min after 30 min equilibration; apical compartment; % of total peptide added; RP-HPLC UV 220 nm; mean ± SD; n. d. = not detected with RP-HPLC
Method: Caco-2 cells were obtained from DISCOG (University of Padova, Padova, Italy). The cells cultured in DMEM (high glucose) supplemented with 10% FBS, were used between 35 and 60 passages. In order to perform transepithelial transport, 8 × 10^4 cells were seeded on Transwell^© cell culture inserts (0.4 µm pore sizes, 12 mm diameter, 1.12 cm^2 grown surface; Corning Life Sciences, Tewksbury, MA, USA). Cells were grown, differentiated for 21 days and the monolayer integrity was estimated by transepithelial electrical resistance (TEER) (Millicell® ERS-2 volt-ohmmeter, EDM Millipore, Darmstadt, Germany) showing values higher than 1100 Ω × cm^2.
The intestinal barrier crossing capacity of the fractions or synthetic peptides through Caco-2 cells monolayer was evaluated using Transwell® insert model according to Tonolo et al.. Briefly, after 21 days of culturing, Caco-2 cells differentiated forming a monolayer that delimited an upper part (apical compartment) and lower part (basolateral compartment). The monolayer was rinsed three times with Hank’s balanced salt solution (HBSS) and 10 mM D-glucose and equilibrated for 30 min at 37 °C. After, cells were incubated in the presence of 0.75 mL HBSS containing 150 µg fraction or 75 µg peptide in the apical chamber at 37 °C for 120 min. Samples collected from both compartments (apical and basolateral) at different times were centrifuged at 11,600× g, filtered with 0.45 µm filter, frozen and lyophilized. Subsequently, the obtained samples were dissolved in 100 µL of 0.1% TFA aqueous solution and evaluated by RP-HPLC and Matrix assisted laser desorption/ionization- time of flight/time of flight mass spectrometry (MALDI-TOF/TOF MS).
The apical and basolateral compartments were evaluated in RP-HPLC using a column Onyx Monolithic C18 100 mm × 4.6 mm, LC column (Phenomenex, Torrance, CA, USA) with a Waters 2695 Separation Module (Milfold, MA, USA) with a Waters 996 Photodiode Array Detector. Separations were performed with a linear gradient from 0–60% ACN in the presence of 0.1% TFA over 20 min at a constant flow rate of 2 mL/min monitoring the peaks by UV detection (λ = 220 nm).
Subsequently, the obtained fractions were analysed with a MALDI-TOF/TOF 4800 mass spectrometer (AB Sciex, Framingham, MA, USA). After an initial full MS scan, enlargements on the MS signals of interest were acquired. For the basolateral fractions, the samples, after lyophilisation, were dissolved in 50 µL of 25% ACN and 0.1% TFA. The analysis was then performed on 2 µL of these solutions mixed with 2 µL of peptide MALDI matrix α-cyano-4-hydroxycynnamic acid (10 mg/mL aqueous 70% acetonitrile/0.1% TFA). The following analytical conditions were set for MALDI-TOF spectra acquisition: positive ion reflector mode, initial mass range 500–3500 Da (the mass range was then adapted for each enlargement), variable laser intensity (3000–3800), shots/sub-spectrum 50, total shots/spectrum 1500 and accelerating voltage of 20 kV. Final data analysis and fragments identification were done on Data Explorer software (AB Sciex, Framingham, MA, USA), utilizing external mass calibration performed with mass peptide standards (Sigma-Aldrich, St Louis, MO, USA).
In order to evaluate the intestinal crossing capacity of the four peptides, Transwell® insert model peptide absorption, was performed. […] After 10 min and 120 min, apical and basolateral compartments were collected and analyzed by RP-HPLC and mass spectrometry.

SMILES	RP-HPLC Estimation AP (%)
CSCC[C@H](NC(=O)[C@@H](NC(=O)[C@@H](NC(=O)[C@@H]1CCCN1C(=O)[C@H](CCC(N)=O)NC(=O)[C@H](C)NC(=O)[C@H](CCC(N)=O)NC(=O)[C@H](CS)NC(=O)[C@H](CO)NC(=O)[C@H](CCCCN)NC(=O)[C@H](C)N)[C@@H](C)O)[C@@H](C)O)C(=O)O [A-11-M] (H-AKSCQAQPTTM-OH)	44.96 ± 9.09%
CC(C)[C@H](NC(=O)[C@H](CCC(N)=O)NC(=O)[C@H](CC(=O)O)NC(=O)[C@H](Cc1c[nH]c2ccccc12)NC(=O)[C@@H]1CCCN1C(=O)[C@@H](N)CC(N)=O)C(=O)N[C@@H](CCCCN)C(=O)N[C@@H](CCCNC(=N)N)C(=O)O [N-8-R] (H-NPWDQVKR-OH)	0.55 ± 0.15%
CC[C@H](C)[C@H](NC(=O)[C@@H]1CCCN1C(=O)CN)C(=O)N[C@H](C(=O)N[C@@H](CC(C)C)C(=O)N[C@@H](CC(N)=O)C(=O)N1CCC[C@H]1C(=O)N[C@@H](Cc1c[nH]c2ccccc12)C(=O)N[C@@H](CC(=O)O)C(=O)N[C@@H](CCC(N)=O)C(=O)N[C@H](C(=O)N[C@@H](CCCCN)C(=O)N[C@@H](CCCNC(=N)N)C(=O)O)C(C)C)C(C)C [G-13-R] (H-GPIVLNPWDQVKR-OH)	3.19 ± 0.27%
CC[C@H](C)[C@H](NC(=O)[C@H](CCCCN)NC(=O)[C@H](CC(=O)O)NC(=O)[C@H](CCC(N)=O)NC(=O)[C@H](CC(C)C)NC(=O)[C@H](CCC(=O)O)NC(=O)[C@@H](N)CC(=O)O)C(=O)N[C@@H](Cc1c[nH]cn1)C(=O)N1CCC[C@H]1C(=O)N[C@@H](Cc1ccccc1)C(=O)O [D-10-F] (H-DELQDKIHPF-OH)	4.17 ± 0.27%
CC[C@H](C)[C@H](NC(=O)[C@@H]1CCCN1C(=O)[C@H](CC(N)=O)NC(=O)[C@@H]1CCCN1C(=O)[C@@H](NC(=O)[C@H](CC(=O)O)NC(=O)[C@H](CO)NC(=O)[C@H](Cc1ccccc1)NC(=O)[C@H](CO)NC(=O)[C@@H]1CCCN1C(=O)[C@H](C)N)[C@@H](C)CC)C(=O)NCC(=O)N[C@@H](CO)C(=O)N[C@@H](CCC(=O)O)C(=O)N[C@@H](CC(N)=O)C(=O)N[C@@H](CO)C(=O)O [A-16-S] (H-APSFSDIPNPIGSENS-OH)	3.22 ± 0.00%
CC[C@H](C)[C@H](N)C(=O)N[C@H](C(=O)N[C@@H](CC(C)C)C(=O)N[C@@H](CC(N)=O)C(=O)N1CCC[C@H]1C(=O)N[C@@H](Cc1c[nH]c2ccccc12)C(=O)N[C@@H](CC(=O)O)C(=O)N[C@@H](CCC(N)=O)C(=O)N[C@H](C(=O)N[C@@H](CCCCN)C(=O)N[C@@H](CCCNC(=N)N)C(=O)O)C(C)C)C(C)C [I-11-R] (H-IVLNPWDQVKR-OH)	1.47 ± 0.19%
CC[C@H](C)[C@H](NC(=O)[C@@H]1CCCN1C(=O)[C@H](CC(N)=O)NC(=O)[C@@H]1CCCN1C(=O)[C@@H](NC(=O)[C@H](CC(=O)O)NC(=O)[C@H](CO)NC(=O)[C@@H](N)Cc1ccccc1)[C@@H](C)CC)C(=O)NCC(=O)N[C@@H](CO)C(=O)N[C@@H](CCC(=O)O)C(=O)N[C@@H](CC(N)=O)C(=O)N[C@@H](CO)C(=O)N[C@@H](CCC(=O)O)C(=O)O [F-14-E] (H-FSDIPNPIGSENSE-OH)	3.07 ± 0.60%

The remaining lines, values ahead:

RP-HPLC Estimation AP (%)	SMILES
2.21 ± 0.53%	CSCC[C@H](NC(=O)[C@@H](NC(=O)[C@@H](NC(=O)[C@@H]1CCCN1C(=O)[C@H](CCC(N)=O)NC(=O)[C@H](C)NC(=O)[C@H](CCC(N)=O)NC(=O)[C@H](CS)NC(=O)[C@H](CO)NC(=O)[C@H](CCCCN)NC(=O)[C@H](C)NC(=O)[C@@H]1CCCN1C(=O)[C@@H](N)C(C)C)[C@@H](C)O)[C@@H](C)O)C(=O)O [V-13-M] (H-VPAKSCQAQPTTM-OH)
8.97 ± 0.53%	CC[C@H](C)[C@H](NC(=O)[C@@H]1CCCN1C(=O)[C@H](CC(N)=O)NC(=O)[C@@H]1CCCN1C(=O)[C@@H](NC(=O)[C@H](CC(=O)O)NC(=O)[C@H](CO)NC(=O)[C@H](Cc1ccccc1)NC(=O)[C@@H](N)CO)[C@@H](C)CC)C(=O)NCC(=O)N[C@@H](CO)C(=O)N[C@@H](CCC(=O)O)C(=O)N[C@@H](CC(N)=O)C(=O)N[C@@H](CO)C(=O)N[C@@H](CCC(=O)O)C(=O)O [S-15-E] (H-SFSDIPNPIGSENSE-OH)

Same assay, conditions: Caco-2 monolayer on Transwell, 21 days, TEER > 1100 Ω × cm^2; A-B, 75 µg peptide in 0.75 mL HBSS apical, 37 °C, 120 min; basolateral compartment; % of initial peptide added apically; RP-HPLC UV 220 nm; mean ± SD; n. d. = not detected with RP-HPLC

RP-HPLC Estimation BL (%)	SMILES
0.16 ± 0.02%	CSCC[C@H](NC(=O)[C@@H](NC(=O)[C@@H](NC(=O)[C@@H]1CCCN1C(=O)[C@H](CCC(N)=O)NC(=O)[C@H](C)NC(=O)[C@H](CCC(N)=O)NC(=O)[C@H](CS)NC(=O)[C@H](CO)NC(=O)[C@H](CCCCN)NC(=O)[C@H](C)N)[C@@H](C)O)[C@@H](C)O)C(=O)O [A-11-M] (H-AKSCQAQPTTM-OH)
0.12 ± 0.03%	CSCC[C@H](NC(=O)[C@@H](NC(=O)[C@@H](NC(=O)[C@@H]1CCCN1C(=O)[C@H](CCC(N)=O)NC(=O)[C@H](C)NC(=O)[C@H](CCC(N)=O)NC(=O)[C@H](CS)NC(=O)[C@@H](N)CO)[C@@H](C)O)[C@@H](C)O)C(=O)O [S-9-M] (H-SCQAQPTTM-OH)
0.30 ± 0.07%	CC[C@H](C)[C@H](NC(=O)[C@@H]1CCCN1C(=O)[C@H](CC(N)=O)NC(=O)[C@@H]1CCCN1C(=O)[C@@H](NC(=O)[C@H](CC(=O)O)NC(=O)[C@H](CO)NC(=O)[C@H](Cc1ccccc1)NC(=O)[C@@H](N)CO)[C@@H](C)CC)C(=O)NCC(=O)N[C@@H](CO)C(=O)N[C@@H](CCC(=O)O)C(=O)N[C@@H](CC(N)=O)C(=O)N[C@@H](CO)C(=O)N[C@@H](CCC(=O)O)C(=O)O [S-15-E] (H-SFSDIPNPIGSENSE-OH)
0.07 ± 0.05%	CC[C@H](C)[C@H](NC(=O)[C@@H]1CCCN1C(=O)CNC(=O)[C@@H](N)CCC(N)=O)C(=O)N[C@H](C(=O)N[C@@H](CC(C)C)C(=O)N[C@@H](CC(N)=O)C(=O)N1CCC[C@H]1C(=O)N[C@@H](Cc1c[nH]c2ccccc12)C(=O)N[C@@H](CC(=O)O)C(=O)N[C@@H](CCC(N)=O)C(=O)N[C@H](C(=O)N[C@@H](CCCCN)C(=O)O)C(C)C)C(C)C [Q-13-K] (H-QGPIVLNPWDQVK-OH)
0.11 ± 0.01%	CC[C@H](C)[C@H](NC(=O)[C@@H]1CCCN1C(=O)CNC(=O)[C@@H](N)CCC(N)=O)C(=O)N[C@H](C(=O)N[C@@H](CC(C)C)C(=O)N[C@@H](CC(N)=O)C(=O)N1CCC[C@H]1C(=O)N[C@@H](Cc1c[nH]c2ccccc12)C(=O)N[C@@H](CC(=O)O)C(=O)N[C@@H](CCC(N)=O)C(=O)O)C(C)C [Q-11-Q] (H-QGPIVLNPWDQ-OH)
